For 24 molecules, IC50 results are on record in US10501438B2, “Aryl-substituted dihydroquinolinones, their preparation and their use as pharmaceuticals” (NEOMED Institute, priority 2015, dated 2019).

Molecules are shown by their SMILES.

As a reminder, the IC50 is the concentration that gives 50% inhibition. The low end stands for greater potency in that assay, the high end for weaker potency in that assay.

For experiment [1], the system named is human C-Myc transcription in MV-4-11 cells. Kind of experiment: Transcription of human C-Myc in human leukemic MV-4-11 cells (QuantiGene 2.0). Format: cell-based. Conditions: Homo sapiens, MV4-11, 4 h, inhibition of C-Myc mRNA, 4 hours treatment. How it is done: b) Transcription of Human C-Myc in Human Leukemic MV-4-11 Cells:
The effect of compounds on transcription of human C-Myc gene is monitored in human B-myelomonocytic leukemia cell line MV-4-11 (from American Type Culture Collection (ATCC), Manassas, Va., USA) using QuantiGene 2.0 assay kit (Affymetrix, Santa Clara, Calif., USA).
Typically, 8,000 MV-4-11 cells are plated in sterile 96-well plates (Costar #3598 from Fisher Scientific Canada, Ottawa, Ontario, Canada) in Iscove's medium supplemented with 10% fetal bovine serum, glutamine (2 mM), and penicillin (100 I.U.) and streptomycin (100 μg/mL) (all from Wisent Inc., St. Bruno, Quebec, Canada). Compounds are dissolved in DMSO at 30 mM. A series of 1:3 dilutions are first made in DMSO, and further 1:100 dilutions are made in serum-containing cell culture media. The final concentration of DMSO is 0.1% in cell culture media. After cells are treated with various concentrations of test compound for 4 hours, cells are lysed using Quantigene 2.0 sample processing kit (#QS0100). C-Myc mRNA is detected using a QuantiGene 2.0 assay kit (#QS0009) with gene-specific probe to human C-Myc (#SA-50182) following the manufacturer's recommendations. Luminescene signals are read on Flexstation II microplate reader (Molecular Devices, Sunnyvale, Calif., USA).

The target of a further experiment is BRD4(BD1) (Homo sapiens (Human), UniProt O60885). Kind of experiment: In vitro bromodomain inhibition assay (AlphaLISA). Format: binding. Particulars: His-tagged BRD4 BD1 200 nM, biotinylated H4-tetraacetyl peptide 200 nM. How it is done:
a) In Vitro Bromodomain Inhibition Assay
To measure activity of bromodomain inhibitors, a His-epitope tagged BRD4 BD149-170 is purchased from BPS Bioscience. BRD4 binding and inhibition is assessed by monitoring the engagement of biotinylated H4-tetraacetyl peptide (H4K5/8/12/16; AnaSpec #64989-025) with the target using the AlphaLISA technology (Perkin-Elmer). Specifically, in a 384 well OptiPlate, BRD4(BD1) (200 nM final) is pre-incubated with either DMSO (final 1.0% DMSO) or a compound dilution series in DMSO. All reagents are diluted in assay buffer containing 50 mM HEPES (pH 7.4), 100 mM NaCl, 0.1% (w/v) BSA, and 0.05% (w/v) CHAPS. After a 30 min incubation at rt, H4 peptide is added (200 nM final) and the reaction is incubated an additional 30 min at rt. Alpha streptavidin donor beads and AlphaLISA nickel chelate acceptor beads are then added to a final concentration of 10 μg/mL each. After one hour, equilibration plates are read on an Envision instrument and IC50s calculated using a four parameter non-linear curve fit (results are shown in Table 2).
Background: Bead proximity is the source of the signal in Alpha formats.

Turning to `Cc1cc(-c2cc3c(c(N(C)c4ccccc4)c2)NC(=O)CC3)cn(C)c1=O` [Compound 14, 6-(1,5-dimethyl-6-oxo-3-pyridyl)-8-(N-methylanilino)-3,4-dihydro-1H-quinolin-2-one], the 50% inhibitory concentration (IC50) came out at 190 nM in experiment [1] and 350 nM against BRD4(BD1).

On to `Cc1cc(-c2cc3c(cc2Cc2ccccc2)NC(=O)CC3)cn(C)c1=O` [Compound 8, 7-benzyl-6-(1,5-dimethyl-6-oxo-3-pyridyl)-3,4-dihydro-1H-quinolin-2-one], for which the half-maximal inhibitory concentration (IC50) in experiment [1] worked out at 240 nM; against BRD4(BD1), 280 nM.

Consider `Cc1cc(-c2ccc3c(c2Cc2ccccc2)CCC(=O)N3)cn(C)c1=O` [Compound 7, 5-benzyl-6-(1,5-dimethyl-6-oxo-3-pyridyl)-3,4-dihydro-1H-quinolin-2-one], for which the IC50 in experiment [1] stood at 90 nM; at BRD4(BD1) it was 140 nM.

On to `Cc1cc(-c2ccc3c(c2Cc2ccccc2)CCC(=O)N3C)cn(C)c1=O` [Compound 9, 5-benzyl-6-(1,5-dimethyl-6-oxo-3-pyridyl)-1-methyl-3,4-dihydroquinolin-2-one], for which the IC50 in experiment [1] was 260 nM; against BRD4(BD1) it was 270 nM.

With `Cc1cc(-c2cc3c(cc2Cc2ccccc2)N(C)C(=O)CC3)cn(C)c1=O` [Compound 10, 7-benzyl-6-(1,5-dimethyl-6-oxo-3-pyridyl)-1-methyl-3,4-dihydroquinolin-2-one], the figures for the IC50 (in experiment [1]; at BRD4(BD1)) were 250 nM and 480 nM, respectively.

With `Cc1cc(-c2cc3c(c(NC4CCCCC4)c2)NC(=O)CC3)cn(C)c1=O` [Compound 6, 8-(cyclohexylamino)-6-(1,5-dimethyl-6-oxo-3-pyridyl)-3,4-dihydro-1H-quinolin-2-one], the IC50 is 750 nM in experiment [1] and 810 nM against BRD4(BD1).

For the molecule `Cc1cc(-c2cc3c(c(NCc4ccccc4)c2)NC(=O)CC3)cn(C)c1=O` [Compound 4, 8-(benzylamino)-6-(1,5-dimethyl-6-oxo-3-pyridyl)-3,4-dihydro-1H-quinolin-2-one], the IC50 in experiment [1] is 90 nM; against BRD4(BD1) it was 280 nM.

Regarding `Cc1cc(-c2cc3c(c(Nc4cccnc4)c2)NC(=O)CC3)cn(C)c1=O` [Compound 11, 6-(1,5-dimethyl-6-oxo-3-pyridyl)-8-(3-pyridylamino)-3,4-dihydro-1H-quinolin-2-one], the half-inhibitory concentration (IC50) was determined as 2120 nM in experiment [1] and 350 nM against BRD4(BD1).

For `Cc1cc(-c2cc3c(c(CN4CCCCC4)c2)NC(=O)CC3)cn(C)c1=O` [Compound 13, 6-(1,5-dimethyl-6-oxo-3-pyridyl)-8-(1-piperidylmethyl)-3,4-dihydro-1H-quinolin-2-one], the values for the IC50 (in experiment [1]; at BRD4(BD1)) were 1580 nM and 1300 nM, respectively.

For the molecule `Cc1cc(-c2cc3c(c(NCc4ccccn4)c2)NC(=O)CC3)cn(C)c1=O` [Compound 12, 6-(1,5-dimethyl-6-oxo-3-pyridyl)-8-(2-pyridylmethylamino)-3,4-dihydro-1H-quinolin-2-one], the IC50 in experiment [1] was determined as 90 nM; on BRD4(BD1), 110 nM.

Consider `Cc1cc(-c2cc3c(c(NC4CCOCC4)c2)NC(=O)CC3)cn(C)c1=O` [Compound 18, 6-(1,5-dimethyl-6-oxo-3-pyridyl)-8-(tetrahydropyran-4-ylamino)-3,4-dihydro-1H-quinolin-2-one], for which the 50% inhibitory concentration (IC50) in experiment [1] is 790 nM; against BRD4(BD1), 420 nM.

With `Cc1cc(-c2cc3c(c(Cc4ccccc4)c2)N(C)C(=O)CC3)cn(C)c1=O` [Compound 2, 8-benzyl-6-(1,5-dimethyl-6-oxo-3-pyridyl)-1-methyl-3,4-dihydroquinolin-2-one], the IC50 in experiment [1] was 210 nM; against BRD4(BD1) it was 560 nM.

In the case of `Cc1cc(-c2cc3c(c(OCc4ccccc4)c2)NC(=O)CC3)cn(C)c1=O` [Compound 17, 8-(benzyloxy)-6-(1,5-dimethyl-6-oxo-1,6-dihydropyridin-3-yl)-3,4-dihydroquinolin-2(1H)-one], the IC50 turned out to be 240 nM in experiment [1] and 180 nM at BRD4(BD1).

Take `Cc1cc(-c2cc3c(c(Cc4ccccc4)c2)NC(=O)CC3)cn(C)c1=O` [Compound 1, 8-benzyl-6-(1,5-dimethyl-6-oxo-3-pyridyl)-3,4-dihydro-1H-quinolin-2-one]: the half-maximal inhibitory concentration (IC50) in experiment [1] worked out at 160 nM; at BRD4(BD1), 410 nM.

`Cc1cc(-c2cc3c(c(OCc4nccs4)c2)NC(=O)CC3)cn(C)c1=O` [Compound 83, 6-(1,5-dimethyl-6-oxo-1,6-dihydropyridin-3-yl)-8-(thiazol-2-ylmethoxy)-3,4-dihydroquinolin-2(1H)-one] had an IC50 in experiment [1] of 510 nM.

In turn, `Cc1cc(-c2cc3c(c(COC4CCCC4)c2)NC(=O)CC3)cn(C)c1=O` [Compound 21, 8-(cyclopentoxymethyl)-6-(1,5-dimethyl-6-oxo-3-pyridyl)-3,4-dihydro-1H-quinolin-2-one] came in with a half-maximal inhibitory concentration (IC50) in experiment [1] of 280 nM.

In turn, `Cc1cc(-c2ccc3c(c2Cc2ccncc2)CCC(=O)N3)cn(C)c1=O` [Compound 59, 6-(1,5-dimethyl-6-oxo-1,6-dihydropyridin-3-yl)-5-(pyridin-4-ylmethyl)-3,4-dihydroquinolin-2(1H)-one] displayed a half-maximal inhibitory concentration (IC50) in experiment [1] of 270 nM.

Turning to `Cc1cc(-c2cc3c(c(NC(C)c4ccccn4)c2)NC(=O)CC3)cn(C)c1=O` (stereo not shown) [Compound 22, 6-(1,5-dimethyl-6-oxo-3-pyridyl)-8-[1-(2-pyridyl)ethylamino]-3,4-dihydro-1H-quinolin-2-one], the 50% inhibitory concentration (IC50) in experiment [1] stood at 240 nM.

The molecule `Cc1cc(-c2cc3c(c(NCc4cccnc4)c2)NC(=O)CC3)cn(C)c1=O` [Compound 78, 6-(1,5-dimethyl-6-oxo-1,6-dihydropyridin-3-yl)-8-(pyridyl-3-ylmethylamino)-3,4-dihydro-1H-quinolin-2-one] showed a 50% inhibitory concentration (IC50) in experiment [1] of 100 nM.

For `Cc1cc(-c2cc3c(c(CNC4CCCC4)c2)NC(=O)CC3)cn(C)c1=O` [Compound 19, 8-[(cyclopentylamino)methyl]-6-(1,5-dimethyl-6-oxo-3-pyridyl)-3,4-dihydro-1H-quinolin-2-one], the IC50 in experiment [1] was 900 nM; against BRD4(BD1), 700 nM.

`Cc1cc(-c2cc3c(c(NCc4ccncc4)c2)NC(=O)CC3)cn(C)c1=O` [Compound 28, 6-(1,5-dimethyl-6-oxo-3-pyridyl)-8-(4-pyridylmethylamino)-3,4-dihydro-1H-quinolin-2-one]: in experiment [1], it took 420 nM to reach half-maximal inhibition (IC50).

`Cn1cc(-c2cc3c(c(OCc4ccccn4)c2)NC(=O)CC3)cc(Cl)c1=O` [Compound 79, 6-(5-chloro-1-methyl-6-oxo-1,6-dihydropyridin-3-yl)-8-(pyridin-2-ylmethoxy)-3,4-dihydroquinolin-2(1H)-one]: half-maximal inhibition in experiment [1] (IC50) was put at 240 nM.

As for `Cc1cc(-c2cc3c(c(Nc4ccccc4)c2)NC(=O)CC3)cn(C)c1=O` [Compound 3, 8-anilino-6-(1,5-dimethyl-6-oxo-3-pyridyl)-3,4-dihydro-1H-quinolin-2-one], the IC50 in experiment [1] worked out at 580 nM; against BRD4(BD1) it was 510 nM.

Take `Cc1cc(-c2cc3c(c(COC4CCOCC4)c2)NC(=O)CC3)cn(C)c1=O` [Compound 47, 6-(1,5-dimethyl-6-oxo-1,6-dihydropyridin-3-yl)-8-(((tetrahydro-2H-pyran-4-yl)oxy)methyl)-3,4-dihydroquinolin-2(1H)-one]: 940 nM corresponded to half-maximal inhibition in experiment [1] (IC50).
